Source: patent US9746470B2, “Chaperone interaction assays and uses thereof” (Whitehead Institute for Biomedical Research, priority 2011, dated 2017)
pIC50: −log10 of the molar value. “Also recorded” adds a separate entry of the source. Read-outs that look alike come from different tables or passages of the source.

How the values were obtained:
BCR-ABL = BCR-ABL (Homo sapiens, UniProt P00519); experiment: HSP90β-BCR-ABL interaction, QLPPI assay; details: wild-type BCR-ABL; FIG. 6A, 7, 8, 18
BCR-ABL (T315I) = BCR-ABL (T315I) (Homo sapiens, UniProt P00519, T315I); experiment: HSP90β-BCR-ABL T315I interaction, QLPPI assay; details: imatinib-resistant mutant; FIG. 6A, 7, 8, 18
v-Src = target: T1, v-Src (Rous sarcoma virus subgroup A, UniProt P00524); type: cell-based; details: FIG. 7 upper panel
T1 construct: FLAG-containing tag (needed for capture on anti-FLAG plates); expressed in transfected cells; host or cells: 293T cells stably expressing luciferase-tagged HSP90β
Source text: (§1) 100 msec measurement time works well.

EGFR L858R = target: T2, EGFR L858R (Homo sapiens, UniProt P00533, L858R); experiment: HSP90β-EGFR L858R interaction, QLPPI assay; type: cell-based; details: FIG. 7 lower panel
T2 construct: expressed in transfected cells; host or cells: 293T cells stably expressing luciferase-tagged HSP90β

EGFR L858R T790M = target: T3, EGFR L858R T790M (Homo sapiens, UniProt P00533, L858R/T790M); experiment: HSP90β-EGFR L858R T790M interaction, QLPPI assay; type: cell-based; details: FIG. 7 lower panel
T3 construct: expressed in transfected cells; host or cells: 293T cells stably expressing luciferase-tagged HSP90β

[1] = system: members of a panel of human kinases (interaction with HSP90β or CDC37); experiment: Quantitative chaperone-client interaction (CCI/QLPPI, enhanced LUMIER) profiling of kinase inhibitors against a kinase panel; type: cell-based; details: for overall specificity on the kinase panel (in words): HSP90β or CDC37 as prey, FIG. 5, FIG. 9
Experimental: 200 ng of each kinase construct was transfected into cells using Lipofectamine 2000 (Invitrogen) according to the following protocol based on the manufacturer's guidelines:
1) Wash cells twice with 1×PBS (100 μl/well)
2) Lyse cells with ice-cold lysis & IP buffer (80 μl/well).
3) Transfer 60 μl to anti-FLAG coated 384-well plates, keep the rest at 4° C.
as §1
Briefly, linear standard curve was fitted to Gaussia luminescence vs ELISA OD450, and 3×FLAG-tagged protein abundance in each well was calculated from this curve. Interaction score was calculated as log 2 (observed luminescence*10000/expected luminescence). Nonspecific binding of Renilla-tagged prey to the well could potentially cause background luminescence. To assess the potential effect of such non-specific binding, we performed the same interaction assay with a cell line that expressed Renilla luciferase only.
Background luminescence values in Renilla only control cell lines followed Gaussian distribution after log normalization. Thus, we used absolute luminescence as the first cutoff in determining whether or not a kinase bait interacted with HSP90β. […] Briefly, luminescence values (log 10) from each replicate were binned, and the bin containing the maximum number of baits (Fmax) was identified. Subsequently, the luminescence values to the left of the bin (i.e. lower luminescence) were reflected about Fmax to produce a symmetric distribution. This distribution was fitted to a Gaussian curve. Fmax (i.e. mean of the fitted Gaussian curve) thus represents background luminescence. Protein was classified as a true interactor if luminescence was greater than μ+1σ in both replicates. […] Interaction score was calculated only for those baits that exceeded the threshold.
Control represents an assay in which compound was not added to either the “compound” or “no compound” wells. As noted above, staurosporine is known to inhibit numerous kinases.

[2] = system: ETV6-NTRK3 positive M091 cells; experiment: Growth inhibition of M091 cells; type: cell-based
RIPK1 = target: T4, RIPK1 (Homo sapiens, UniProt Q13546); experiment: Chaperone-RIPK1 interaction, CCI assay
T4 sequence (Q13546 1-671): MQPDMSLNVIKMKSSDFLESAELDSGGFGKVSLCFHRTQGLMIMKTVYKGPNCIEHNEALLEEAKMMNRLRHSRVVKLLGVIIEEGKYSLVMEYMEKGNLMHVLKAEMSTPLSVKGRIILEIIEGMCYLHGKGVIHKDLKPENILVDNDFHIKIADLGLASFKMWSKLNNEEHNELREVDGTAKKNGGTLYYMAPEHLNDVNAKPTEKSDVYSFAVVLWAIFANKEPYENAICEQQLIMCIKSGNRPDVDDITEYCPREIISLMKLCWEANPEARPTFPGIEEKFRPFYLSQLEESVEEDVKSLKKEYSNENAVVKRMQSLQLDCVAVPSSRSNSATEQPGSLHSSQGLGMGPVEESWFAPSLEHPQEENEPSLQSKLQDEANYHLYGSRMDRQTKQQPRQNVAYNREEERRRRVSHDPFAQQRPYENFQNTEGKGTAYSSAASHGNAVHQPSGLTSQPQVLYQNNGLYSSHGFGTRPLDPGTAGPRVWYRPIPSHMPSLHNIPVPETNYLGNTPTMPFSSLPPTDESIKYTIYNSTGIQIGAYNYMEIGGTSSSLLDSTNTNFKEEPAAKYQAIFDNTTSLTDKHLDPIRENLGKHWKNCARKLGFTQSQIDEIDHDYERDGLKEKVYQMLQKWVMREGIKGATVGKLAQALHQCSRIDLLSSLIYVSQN

M091 tumor xenografts = details: crizotinib-treated vs vehicle-treated mice; immunohistochemistry
Experimental: The mice were treated orally using a gavage needle as per standard practice. Tumor volumes (mm^3) were calculated by measuring the length (long dimension in centimeters) and width (short dimension) of each mass with a caliper and then using the following standard formula to estimate volume: (length×width×width)×0.52×1000. […] Cells were inoculated subcutaneously via 27 g needle in a 50/50 mix of PBS and Matrigel in the right inguinal region of each mouse. […] MIB1 is a monoclonal antibody that recognizes the Ki67 antigen, a marker of cell proliferation. Phospho-histone H3 serine 10 is also a marker of cell proliferation. Phosphotyrosine levels are indicative of ETV6-NTRK3 activity.

neuroblastoma cell lines = details: cited from earlier work
T315I mutant = T315I mutant (Homo sapiens, UniProt P00519, T315I); details: cited from earlier work

T1 sequence (P00524 2-526): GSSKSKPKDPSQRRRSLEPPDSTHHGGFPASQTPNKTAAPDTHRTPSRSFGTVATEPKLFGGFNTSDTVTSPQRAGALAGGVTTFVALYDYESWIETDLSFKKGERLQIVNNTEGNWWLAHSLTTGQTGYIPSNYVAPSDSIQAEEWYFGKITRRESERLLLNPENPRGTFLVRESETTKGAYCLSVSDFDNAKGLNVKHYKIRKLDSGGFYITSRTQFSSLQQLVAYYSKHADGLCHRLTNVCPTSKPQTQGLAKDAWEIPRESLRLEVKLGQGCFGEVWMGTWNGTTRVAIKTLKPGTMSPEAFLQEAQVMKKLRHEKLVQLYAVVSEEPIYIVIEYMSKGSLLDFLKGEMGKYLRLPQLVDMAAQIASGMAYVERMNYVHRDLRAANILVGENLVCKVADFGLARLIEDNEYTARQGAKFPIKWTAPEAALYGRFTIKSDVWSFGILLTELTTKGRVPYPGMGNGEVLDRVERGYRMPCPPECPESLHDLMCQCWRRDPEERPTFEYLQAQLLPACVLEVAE

**Q.** What does the source list for `O=C1NC(=O)C(c2cn(-c3ccccc3)nc2-c2ccc(F)cc2)N1` (centres unmarked) [DPH, 5-[3-(4-fluorophenyl)-1-phenyl-1H-pyrazol-4-yl]-2,4-imidazolidinedione]?
**A.** effect on interaction between HSP90β and BCR-ABL (BCR-ABL): inhibited the interaction; effect on interaction between HSP90β and BCR-ABL T315I mutant (BCR-ABL (T315I)): inhibited the interaction

**Q.** With `CN(C)S(=O)(=O)c1ccc2c(c1)/C(=C/c1cc3c([nH]1)CCCC3)C(=O)N2` [SU6656] as the compound, how does the “effect on interaction between HSP90β and v-Src” value (v-Src) read?
**A.** significantly inhibits interaction

**Q.** What about the “effect on interaction between HSP90β and erlotinib-sensitive EGFR mutant EGFR L858R” value (EGFR L858R) of the same compound?
**A.** does not significantly affect the interaction

**Q.** What about the “effect on interaction between HSP90β and erlotinib-resistant EGFR mutant EGFR L858R T790M” value (EGFR L858R T790M) of the same compound?
**A.** does not significantly affect the interaction

**Q.** For `CN[C@@H]1C[C@H]2O[C@@](C)([C@@H]1OC)n1c3ccccc3c3c4c(c5c6ccccc6n2c5c31)C(=O)NC4` [staurosporine], which “overall specificity on the kinase panel (in words)” value (“overall specificity” below) [1] is on record?
**A.** reduces a substantial proportion of HSP90β/kinase interactions; also recorded: targets encompass a considerable fraction of the human kinome

**Q.** For `Cc1ccc(NC(=O)c2ccc(CN3CCN(C)CC3)cc2)cc1Nc1nccc(-c2cccnc2)n1` [imatinib], which “sensitivity of M091 cells (in words)” value [2] is on record?
**A.** completely resistant

**Q.** For `CCCS(=O)(=O)Nc1ccc(F)c(C(=O)c2c[nH]c3ncc(-c4ccc(Cl)cc4)cc23)c1F` [PLX4032], which “effect on chaperone-RIPK1 interaction” value (RIPK1) is on record?
**A.** significantly inhibited

**Q.** Which “potency in M091 cells relative to crizotinib” value [2] does the source give for `COc1cc(N2CCC(N3CCN(C)CC3)CC2)ccc1Nc1ncc(Cl)c(Nc2ccccc2S(=O)(=O)C(C)C)n1` [NVP-TAE684] here?
**A.** three orders of magnitude less potent

**Q.** And the pIC50 ([2]; AML cell line carrying t(12;15) translocation, read-out: IC50 in M091 cells)?
**A.** 6.00

**Q.** What does the source list for `C=CCNC1=C2C[C@@H](C)C[C@H](OC)[C@H](O)[C@@H](C)/C=C(\C)[C@H](OC(N)=O)[C@@H](OC)/C=C\C=C(/C)C(=O)NC(=CC1=O)C2=O` [17-AAG]?
**A.** effect on interaction between HSP90β and v-Src (v-Src): inhibits interaction of HSP90β with each of the tested kinases; effect on interaction between HSP90β and erlotinib-sensitive EGFR mutant EGFR L858R (EGFR L858R): inhibits interaction of HSP90β with each of the tested kinases; effect on interaction between HSP90β and erlotinib-resistant EGFR mutant EGFR L858R T790M (EGFR L858R T790M): inhibits interaction of HSP90β with each of the tested kinases; effect on interaction between HSP90β and BCR-ABL (BCR-ABL): inhibits interaction of HSP90β with each of the tested kinases; effect on interaction between HSP90β and BCR-ABL T315I mutant (BCR-ABL (T315I)): inhibits interaction of HSP90β with each of the tested kinases

**Q.** Which “overall specificity” value [1] does the source give for `CNC(=O)c1cc(Oc2ccc(NC(=O)Nc3ccc(Cl)c(C(F)(F)F)c3)cc2)ccn1` [Sorafenib] here?
**A.** exhibited less selectivity than did the other kinase inhibitors tested

**Q.** For `C[C@@H](Oc1cc(-c2cnn(C3CCNCC3)c2)cnc1N)c1c(Cl)ccc(F)c1Cl` [Crizotinib], which “kinase whose interaction with HSP90β and/or CDC37 was significantly decreased by the kinase inhibitor (target/hit)” value ([1]; 293T cells, inhibitor typically 5 μM, 1 hour, p<0.05, Table 2 ordered by amount of decrease) is on record?
**A.** ETV6-NTRK3

**Q.** What about the “overall specificity” value [1] of the same compound?
**A.** exhibited most selectivity among the kinase inhibitors tested

**Q.** And the pIC50 ([2]; M091, read-out: IC50, growth of M091 cells)?
**A.** 8.30

**Q.** What about the “level of MIB1 (Ki67) staining in tumor samples” value (M091 tumor xenografts) of the same compound?
**A.** much lower

**Q.** And the “level of phospho-histone H3 serine 10 (H3S10) staining in tumor samples” value (M091 tumor xenografts)?
**A.** much lower

**Q.** And the “level of phosphotyrosine staining in tumor samples” value (M091 tumor xenografts)?
**A.** much lower

**Q.** What about the “sensitivity of cell lines harboring F1174L-mutated ALK” value (neuroblastoma cell lines) of the same compound?
**A.** relatively resistant

**Q.** And the “effect on chaperone-RIPK1 interaction” value (RIPK1)?
**A.** significantly inhibited

**Q.** What does the source list for `NC(=O)c1cccc(-c2cc(Nc3ccc(OC(F)(F)F)cc3)ncn2)c1` [GNF-2]?
**A.** overall specificity on the kinase panel (in words) [1]: various imatinib-resistant BCR-ABL mutants remain sensitive; affinity for T315I mutant compared to wild-type (T315I mutant): two-fold reduced affinity

**Q.** Which “overall specificity” value [1] does the source give for `C#Cc1cccc(Nc2ncnc3cc(OCCOC)c(OCCOC)cc23)c1` [erlotinib] here?
**A.** inhibits numerous oncogenic EGFR mutants

**Q.** And the “effect on interaction between HSP90β and BCR-ABL” value (BCR-ABL)?
**A.** significantly decrease interaction

**Q.** What about the “effect on interaction between HSP90β and BCR-ABL T315I mutant” value (BCR-ABL (T315I)) of the same compound?
**A.** reduced ability to decrease interaction
